The test system of test [1] is HT-29 cells (colorectal adenocarcinoma). The experiment in a line: Inhibition of cancer cell proliferation, HT-29 (CellTiterGlo, 72 hours). The conditions noted are these: Homo sapiens. Type of test: cell-based. Put shortly:
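HT-29 cells seeded at 3000/well, then treated with 3-fold serial dilutions from a 5,000 nM two-fold solution in serum-free RPMI1640, untreated wells as control, for 72 h at 37° C. CellTiterGlo luminescence converted to cell number via a standard curve; GI50 from percent inhibition versus untreated growth.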
(Cellular ATP, detected with luciferase, serves as a proxy for viable cell number.)

Test [2] has as its system HCT116 cells (colorectal carcinoma). The experiment in a line: Inhibition of cancer cell proliferation, HCT116 (CellTiterGlo, 72 hours). Type of test: cell-based. The following applies: Homo sapiens, HCT-116. The method, then: Measurement of Inhibition of Cancer Cell Proliferation (HCT116/Colorectal Carcinoma)
The following protocol used a HCT116 cell line, which cell line is a model for colorectal carcinoma. HCT116 cells were split and 3000 cells in 100 μl of growth medium were added per well of a flat-bottom 96-well plate. A two-fold test compound solution in serum-free RPM1640 was made, starting at 5,000 nM. Then, 3-fold serial dilutions were made across the plate from well 1 to well 11. Well 12, the last well in a row on the plate, was left as untreated control. 100 μl compound solutions were then transferred to the wells, so the total volume of media was 200 μl per well. Plates were returned to a 37° C. incubator, and the cells were cultured for 72 hours. To measure cell proliferation after 72 hours, media was discarded from the plates, 50 μl/well of fresh medium was added, and 50 μl CellTiterGlo solution was added (Promega Cat#G7573). The plate was covered with a dark lid and incubated for 10 min. A white sealing tape was applied to the bottom of the plate, and the plate was read in a luminescence plate reader. […] 50 μl CellTiterGlo was added per well, and the plate was read in a luminescence plate reader after 10 min. The reading was plotted vs. cell number to generate a standard curve and the equation of the curve fit. The compound-treated sample luminescence readings were converted to cell numbers using the curve-fit equation. The percent of inhibition, using untreated control as 100% growth, was then calculated. GI50 was then calculated by GraphPad Prism.

The GI50 is the concentration that inhibits growth by half. A high value points to lower sensitivity of the cells. Regarding `C=CC(=O)Nc1cc(C)c(F)cc1Nc1nc(Nc2nc(OC)ncc2C)ncc1C(F)(F)F` [Compound I-377, N-(4-fluoro-2-((2-((2-methoxy-5-methylpyrimidin-4-yl)amino)-5-(trifluoromethyl)pyrimidin-4-yl)amino)-5-methylphenyl)acrylamide], the GI50 in test [1] is < 100 nM; in test [2], > 1000 nM.

For `C=CC(=O)Nc1cc(C)ccc1Nc1nc(Nc2nc(OC)ccc2Cl)ncc1C(F)(F)F` [Compound I-360, N-(2-((2-((3-chloro-6-methoxypyridin-2-yl)amino)-5-(trifluoromethyl)pyrimidin-4-yl)amino)-5-methylphenyl)acrylamide], the GI50 in test [1] and in test [2] was > 1000 nM in each case.

In the case of `C=CC(=O)Nc1cc(C)ccc1Nc1nc(Nc2ncc(C(F)(F)F)c(OC)n2)ncc1C(F)(F)F` [Compound I-354, N-(2-((2-((4-methoxy-5-(trifluoromethyl)pyrimidin-2-yl)amino)-5-(trifluoromethyl)pyrimidin-4-yl)amino)-5-methylphenyl)acrylamide], the figures for the concentration for 50% growth inhibition (GI50) in test [1] and in test [2] were 101 to 500 nM and 501 to 999 nM, respectively.

As to `C=CC(=O)Nc1cc(CN2CCN(C(=O)c3cnccn3)CC2)ccc1Nc1nc(Nc2cc(OC)ncc2C)ncc1C(F)(F)F` [Compound I-390, N-(2-((2-((2-methoxy-5-methylpyridin-4-yl)amino)-5-(trifluoromethyl)pyrimidin-4-yl)amino)-5-((4-(pyrazine-2-carbonyl)piperazin-1-yl)methyl)phenyl)acrylamide], the GI50 in test [1] is < 100 nM; in test [2], 101 to 500 nM.

Take `C=CC(=O)Nc1cc(C)ccc1Nc1nc(Nc2cc(OCCOC)ncc2C)ncc1C(F)(F)F` [Compound I-359, N-(2-((2-((2-(2-methoxyethoxy)-5-methylpyridin-4-yl)amino)-5-(trifluoromethyl)pyrimidin-4-yl)amino)-5-methylphenyl)acrylamide]: the GI50 in test [1] was 501 to 999 nM; in test [2], > 1000 nM.

Consider `C=CC(=O)Nc1cc(C)ccc1Nc1nc(Nc2cc(NCCOC)nc(OC)c2)ncc1C(F)(F)F` [Compound I-294, N-(2-((2-((2-methoxy-6-((2-methoxyethyl)amino)pyridin-4-yl)amino)-5-(trifluoromethyl)pyrimidin-4-yl)amino)-5-methylphenyl)acrylamide], for which the GI50 in test [1] and in test [2] was < 100 nM in each case.

Take `C=CC(=O)Nc1cc(CN2CCN(S(C)(=O)=O)CC2)ccc1Nc1nc(Nc2cc(OC)ncc2C)ncc1C(F)(F)F` [Compound I-384, N-(2-((2-((2-methoxy-5-methylpyridin-4-yl)amino)-5-(trifluoromethyl)pyrimidin-4-yl)amino)-5-((4-(methylsulfonyl)piperazin-1-yl)methyl)phenyl)acrylamide]: the concentration for 50% growth inhibition (GI50) in test [1] was < 100 nM; in test [2] it was 101 to 500 nM.

As for `C=CC(=O)Nc1cc(C)ccc1Nc1nc(Nc2cc(N[C@H]3CC[C@](C)(O)CC3)nc(OC)c2)ncc1C(F)(F)F` [Compound I-327, N-(2-((2-((2-((trans-4-hydroxy-4-methylcyclohexyl)amino)-6-methoxypyridin-4-yl)amino)-5-(trifluoromethyl)pyrimidin-4-yl)amino)-5-methylphenyl)acrylamide], in test [2], the GI50 was < 100 nM.

For the molecule `C=CC(=O)Nc1cc(CN2CCN(C(=O)c3cccnc3)CC2)ccc1Nc1nc(Nc2cc(OC)ncc2C)ncc1C(F)(F)F` [Compound I-389, N-(2-((2-((2-methoxy-5-methylpyridin-4-yl)amino)-5-(trifluoromethyl)pyrimidin-4-yl)amino)-5-((4-nicotinoylpiperazin-1-yl)methyl)phenyl)acrylamide], the concentration for 50% growth inhibition (GI50) was < 100 nM in test [1] and 101 to 500 nM in test [2].

As for `C=CC(=O)Nc1ccccc1Nc1nc(Nc2cc(OC)ncc2C)ncc1C(F)(F)F` [Compound I-85, N-(2-((2-((2-Methoxy-5-methylpyridin-4-yl)amino)-5-(trifluoromethyl)pyrimidin-4-yl)amino)phenyl)acrylamide], the 50% growth inhibitory concentration (GI50) is < 100 nM in test [1] and 101 to 500 nM in test [2].

Take `C=CC(=O)Nc1cc(C)ccc1Nc1nc(Nc2nc(OC)ncc2C)ncc1C(F)(F)F` [Compound I-347, N-(2-((2-((2-methoxy-5-methylpyrimidin-4-yl)amino)-5-(trifluoromethyl)pyrimidin-4-yl)amino)-5-methylphenyl)acrylamide]: the values for the GI50 in test [1] and in test [2] were 101 to 500 nM and 501 to 999 nM, respectively.

For `C=CC(=O)Nc1cc(C)ccc1Nc1nc(Nc2ccnc3ccccc23)ncc1C(F)(F)F` [Compound I-379, N-(5-methyl-2-((2-(quinolin-4-ylamino)-5-(trifluoromethyl)pyrimidin-4-yl)amino)phenyl)acrylamide], the GI50 in test [1] and in test [2] was 101 to 500 nM in each case.

In the case of `C=CC(=O)Nc1cc(C)ccc1Nc1nc(Nc2cc(OC)nc(N3CCN(C(C)=O)CC3)c2)ncc1C(F)(F)F` [Compound I-93, N-(2-((2-((2-(4-Acetylpiperazin-1-yl)-6-methoxypyridin-4-yl)amino)-5-(trifluoromethyl)pyrimidin-4-yl)amino)-5-methylphenyl)acrylamide], the concentration for 50% growth inhibition (GI50) in test [1] and in test [2] was < 100 nM throughout.

For `C=CC(=O)Nc1cc(OCC(N)=O)ccc1Nc1nc(Nc2cc(OC)ncc2C)ncc1C(F)(F)F` [Compound I-398, N-(5-(2-amino-2-oxoethoxy)-2-((2-((2-methoxy-5-methylpyridin-4-yl)amino)-5-(trifluoromethyl)pyrimidin-4-yl)amino)phenyl)acrylamide], the GI50 was < 100 nM in test [1] and 101 to 500 nM in test [2].

Consider `C=CC(=O)Nc1cc(C)c(F)cc1Nc1nc(Nc2nc(OC)ncc2Cl)ncc1C(F)(F)F` [Compound I-374, N-(2-((2-((5-chloro-2-methoxypyrimidin-4-yl)amino)-5-(trifluoromethyl)pyrimidin-4-yl)amino)-4-fluoro-5-methylphenyl)acrylamide], for which the GI50 in test [1] and in test [2] was 101 to 500 nM each time.

Take `C=CC(=O)Nc1cc(C)ccc1Nc1nc(Nc2cc(C(C)=O)ccc2C)ncc1C(F)(F)F` [Compound I-84, N-(2-((2-((5-Acetyl-2-methylphenyl)amino)-5-(trifluoromethyl)pyrimidin-4-yl)amino)-5-methylphenyl)acrylamide]: the results for the GI50 in test [1] and in test [2] were 101 to 500 nM and 501 to 999 nM, respectively.

Take `C=CC(=O)Nc1cc(C)ccc1Nc1nc(Nc2ncc(F)c(OC)n2)ncc1C(F)(F)F` [Compound I-356, N-(2-((2-((5-fluoro-4-methoxypyrimidin-2-yl)amino)-5-(trifluoromethyl)pyrimidin-4-yl)amino)-5-methylphenyl)acrylamide]: the GI50 in test [1] is 501 to 999 nM; in test [2], > 1000 nM.

In the case of `C=CC(=O)Nc1cc(C)ccc1Nc1nc(Nc2nc(OC)ncc2C#N)ncc1C(F)(F)F` [Compound I-346, N-(2-((2-((5-cyano-2-methoxypyrimidin-4-yl)amino)-5-(trifluoromethyl)pyrimidin-4-yl)amino)-5-methylphenyl)acrylamide], the GI50 fell in the range of 101 to 500 nM in test [1] and 501 to 999 nM in test [2].

On to `C=CC(=O)Nc1cc(C)ccc1Nc1nc(Nc2cc(OC)nc(OC)c2)ncc1C(F)(F)F` [Compound I-96], for which the GI50 in test [1] and in test [2] was < 100 nM each time.

These data come from patent publication US9561228B2 (Celgene Avilomics Research, Inc., priority 2013, dated 2017).
